# Laboratory results taken from patent publication US20230365595A1, “INHIBITORS OF KRAS(G12D)” (Ranok Therapeutics (Hangzhou) Co. Ltd., priority 2022, published 2023).
# Experiments:
# [1] = Oral bioavailability in CD-1 mice; settings: male, CD-1, mouse, blood, 50 mg/kg
# Experimental: (§3) CD-1 mice were randomly assigned to δgroups with 3 male mice in each compound group. […] Compounds were orally administered (PO) in a single dose to each mouse in its group. Blood samples were taken within 72 hours. Bioavailability (F%) was determined and by liquid chromatography-mass spectrometry (LC-MS/MS).
# [2] = target: T1, KRAS(G12D)-SOS1 (Homo sapiens, UniProt P01116, G12D); experiment: KRAS(G12D)/SOS1 HTRF binding assay; settings: absence of GTP; 4° C. for 3 hr
# T1 construct: purchased Cisbio 63ADK000CB16PEG
# Experimental: Binding of test compounds to KRAS(G12D) target protein, which in turn blocks KRAS(G12D) interaction with the SOS1 protein, was measured in the absences of GTP by homogeneous time-resolved fluorescence using the KRAS-G12D/SOS1 Binding Assay Kit (Cisbio, #63ADK000CB16PEG), following the manufacturer's instructions, except as noted. 3-fold serial dilutions of each test compound were prepared ranging from 20 μM to 1.02 nM. The test compound was mixed and incubated with reaction components, incubated in a sealed plate at 4° C. for 3 hr and fluorescence was measured using a PerkinElmer Envision plate reader. The KRAS(G12D)-SOS1 IC50 values (the concentration of 50% of the maximal inhibition) were calculated using GraphPad Prism 7 software.
# [3] = tested on: A427 cells; experiment: CellTiter-Glo cell cytotoxicity, A427; type: cell-based; settings: A-427, 72 h, A427 human lung carcinoma, 1 copy of KRAS(G12D), read-out: A427 72H CTG
# Experimental: (§1) The following cancer cell lines were employed: A427 human lung carcinoma [1 copy of KRAS(G12D)] (ATCC, #HTB-53); AGS human gastric adenocarcinoma [1 copy of KRAS(G12D)] (ATCC, #CRL-1739); and AsPC-1 human adenocarcinoma [2 copies of KRAS(G12D)] (ATCC, CRL-1682). Cell lines were cultured essentially according to American Type Culture Collection (ATCC) recommendations.
# A427 and AGS cells were plated in 96-well tissue culture plates at 4,000 cells/well and incubated at 37° C/5% CO2 for 72 hr in 100 μl of media. 3-fold serial dilutions of each test compound were prepared ranging from 20 μM to 1.02 nM. Each cell line was then treated with test compounds at various concentrations with a final concentration of 0.5%
# (§2) […] 100 Ill of CellTiter-Glo® Reagent (Promega Corporation, Madison, WI) was added to each well and processed according manufacturer's protocol. Results were analyzed and IC50 values were calculated in GraphPad 7 software.
# [4] = tested on: AGS cells; experiment: CellTiter-Glo cell cytotoxicity, AGS; type: cell-based; settings: AGS human gastric adenocarcinoma, 1 copy of KRAS(G12D), read-out: AGS 72H CTG
# Experimental: as §1
# A427 and AGS cells were plated in 96-well tissue culture plates at 4,000 cells/well and incubated at 37° C/5% CO2 for 72 hr in 100 μl of media. 3-fold serial dilutions of each test compound were prepared ranging from 20 μM to 1.02 nM. […]
# as §2
# [5] = in vivo; settings: male, CD-1, mouse, po, 50 mg/kg
# Experimental: as §3
# T1 sequence (P01116 1-188 isoform P01116-2 G12D): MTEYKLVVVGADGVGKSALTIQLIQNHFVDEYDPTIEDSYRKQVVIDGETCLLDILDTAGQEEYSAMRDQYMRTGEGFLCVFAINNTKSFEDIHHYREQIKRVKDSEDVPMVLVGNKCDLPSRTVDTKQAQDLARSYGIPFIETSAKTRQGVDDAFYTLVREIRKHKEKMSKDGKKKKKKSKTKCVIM
SMILES,bioavailability [1] [%],IC50 [3] [µM],IC50 [4] [µM],also measured
C#Cc1c(F)ccc2cc(O)cc(-c3ncc4c(N5CC6CCC(C5)N6)nc(OC[C@]56CCCN5C[C@@H](F)C6)nc4c3F)c12,0.45,–,–,–
C#Cc1c(F)ccc2cc(O)cc(-c3ncc4c(N5CC6CCC(C5)N6C(=O)C(F)(F)F)nc(OCC5(CN6CCC(F)CC6)CC5)nc4c3F)c12 [drawing 110],–,0.001 to 0.1,0.001 to 0.1,IC50 [2]: 0.001 to 0.1 µM
C#Cc1c(F)ccc2cc(O)cc(-c3ncc4c(N5CC6CCC(C5)N6)nc(OCC5(CN6CCC(F)CC6)CC5)nc4c3F)c12 [drawing 111],–,0.001 to 0.1,0.001 to 0.1,–
C#Cc1c(F)ccc2cc(O)cc(-c3ncc4c(N5CC6CCC(C5)N6C(=O)C(F)(F)F)nc(OC[C@]56CCCN5C[C@@H](F)C6)nc4c3F)c12 [drawing 112],–,1 to 10,0.001 to 0.1,–
C#Cc1c(F)ccc2cc(O)cc(-c3ncc4c(N5CC6CCC(C5)N6C(=O)C(F)(F)F)nc(OCC5(CN6CC7CC7C6)CC5)nc4c3F)c12 (stereo not drawn) [drawing 114],–,1 to 10,0.001 to 0.1,–
C#Cc1c(F)ccc2cc(O)cc(-c3ncc4c(N5CC6CCC(C5)N6)nc(OCC5(CN6CC7CC7C6)CC5)nc4c3F)c12 (stereo not drawn) [drawing 115],–,0.001 to 0.1,0.001 to 0.1,IC50 [2]: 0.001 to 0.1 µM
C#Cc1c(F)ccc2cc(O)cc(-c3ncc4c(N5CC6CCC(C5)N6C(=O)C(F)(F)F)nc(OCC5(CN6CCC(F)CC6)CC5)nc4c3F)c12 [drawing 116],12.4,–,–,–
C#Cc1c(F)ccc2cc(O)cc(-c3ncc4c(N5CC6CCC(C5)N6)nc(OCC5(CN6CCC(F)CC6)CC5)nc4c3F)c12 [drawing 117],0.82,–,–,–
C#Cc1c(F)ccc2cc(O)cc(-c3ncc4c(N5CC6CCC(C5)N6C(=O)C(F)(F)F)nc(OC[C@]56CCCN5C[C@@H](F)C6)nc4c3F)c12 [drawing 118],15.8,–,–,–
C#Cc1c(F)ccc2cc(O)cc(-c3ncc4c(N5CC6CCC(C5)N6C(=O)C(F)(F)F)nc(OCC5(CN6CC7CC7C6)CC5)nc4c3F)c12 (stereo not drawn) [drawing 120],–,–,–,bioavailability [5]: 17.4%
C#Cc1c(F)ccc2cc(O)cc(-c3ncc4c(N5CC6CCC(C5)N6)nc(OCC5(CN6CC7CC7C6)CC5)nc4c3F)c12 (stereo not drawn) [drawing 121],0.47,–,–,–
